Measured values as given in the CheMixHub viscosity set.
± gives the uncertainty stated by the source.

Test: xn = mol fraction of the nth substance listed

C1CCCCC1 + CCCCO
Details | viscosity [mPa·s]
298.15 K, 101 kPa, x1 = 0.1014 | 2.225 ± 0.015
298.15 K, 101 kPa, x1 = 0.1996 | 1.945 ± 0.014
298.15 K, 101 kPa, x1 = 0.2962 | 1.699 ± 0.014
298.15 K, 101 kPa, x1 = 0.4016 | 1.468 ± 0.013
298.15 K, 101 kPa, x1 = 0.5032 | 1.274 ± 0.012
298.15 K, 101 kPa, x1 = 0.597 | 1.123 ± 0.012
298.15 K, 101 kPa, x1 = 0.6908 | 1.02 ± 0.012
298.15 K, 101 kPa, x1 = 0.7923 | 0.9371 ± 0.011
298.15 K, 101 kPa, x1 = 0.8856 | 0.8954 ± 0.011
298.15 K, 101 kPa, x2 = 0.0216 | 0.876 ± 0.008
298.15 K, 101 kPa, x2 = 0.1208 | 0.903 ± 0.009
298.15 K, 101 kPa, x2 = 0.155 | 0.921 ± 0.009
298.15 K, 101 kPa, x2 = 0.1796 | 0.931 ± 0.009
298.15 K, 101 kPa, x2 = 0.3673 | 1.09 ± 0.01
298.15 K, 101 kPa, x2 = 0.532 | 1.357 ± 0.013
298.15 K, 101 kPa, x2 = 0.7128 | 1.752 ± 0.016
298.15 K, 101 kPa, x2 = 0.8385 | 2.07 ± 0.019
303.15 K, 101 kPa, x2 = 0.6491 | 1.196 ± 0.12
303.15 K, 101.33 kPa, x2 = 0.2111 | 0.9317 ± 0.012
303.15 K, 101.33 kPa, x2 = 0.298 | 0.9971 ± 0.012
303.15 K, 101.33 kPa, x2 = 0.4038 | 1.095 ± 0.013
303.15 K, 101.33 kPa, x2 = 0.489 | 1.187 ± 0.015
303.15 K, 101.33 kPa, x2 = 0.8096 | 1.719 ± 0.02
303.15 K, 101.33 kPa, x2 = 0.8981 | 1.941 ± 0.023
308.15 K, 101 kPa, x2 = 0.0216 | 0.745 ± 0.007
308.15 K, 101 kPa, x2 = 0.0714 | 0.754 ± 0.007
308.15 K, 101 kPa, x2 = 0.1208 | 0.765 ± 0.008
308.15 K, 101 kPa, x2 = 0.155 | 0.779 ± 0.008
308.15 K, 101 kPa, x2 = 0.1796 | 0.787 ± 0.008
308.15 K, 101 kPa, x2 = 0.3673 | 0.898 ± 0.009
308.15 K, 101 kPa, x2 = 0.532 | 1.089 ± 0.01
308.15 K, 101 kPa, x2 = 0.6491 | 1.083 ± 0.11
308.15 K, 101 kPa, x2 = 0.7128 | 1.387 ± 0.013
308.15 K, 101 kPa, x2 = 0.8385 | 1.627 ± 0.015
313.15 K, 101 kPa, x1 = 0.1014 | 1.547 ± 0.013
313.15 K, 101 kPa, x1 = 0.1996 | 1.363 ± 0.013
313.15 K, 101 kPa, x1 = 0.2962 | 1.203 ± 0.012
313.15 K, 101 kPa, x1 = 0.4016 | 1.054 ± 0.012
313.15 K, 101 kPa, x1 = 0.5032 | 0.934 ± 0.011
313.15 K, 101 kPa, x1 = 0.597 | 0.8408 ± 0.011
313.15 K, 101 kPa, x1 = 0.6908 | 0.7773 ± 0.011
313.15 K, 101 kPa, x1 = 0.7923 | 0.7265 ± 0.011
313.15 K, 101 kPa, x1 = 0.8856 | 0.6993 ± 0.011
313.15 K, 101 kPa, x2 = 0.6491 | 0.9869 ± 0.1
318.15 K, 101 kPa, x2 = 0.0216 | 0.643 ± 0.006
318.15 K, 101 kPa, x2 = 0.0714 | 0.645 ± 0.006
318.15 K, 101 kPa, x2 = 0.1208 | 0.652 ± 0.007
318.15 K, 101 kPa, x2 = 0.155 | 0.664 ± 0.007
318.15 K, 101 kPa, x2 = 0.1796 | 0.672 ± 0.007
318.15 K, 101 kPa, x2 = 0.3673 | 0.754 ± 0.007
318.15 K, 101 kPa, x2 = 0.532 | 0.895 ± 0.009
318.15 K, 101 kPa, x2 = 0.7128 | 1.114 ± 0.011
318.15 K, 101 kPa, x2 = 0.8385 | 1.298 ± 0.012

CCC(C)=O + CCCCO
viscosity [mPa·s]
Details | 298.15 K | 308.15 K | 318.15 K
100 kPa, x1 = 0.0997 | – | 1.465 ± 0.011 | –
100 kPa, x1 = 0.1999 | – | 1.115 ± 0.0096 | –
101.3 kPa, x2 = 0.0987 | 0.428 ± 0.004 | 0.385 ± 0.004 | 0.349 ± 0.004
101.3 kPa, x2 = 0.1988 | 0.476 ± 0.005 | 0.425 ± 0.004 | 0.382 ± 0.004
101.3 kPa, x2 = 0.3004 | 0.538 ± 0.005 | 0.476 ± 0.005 | 0.425 ± 0.004
101.3 kPa, x2 = 0.3991 | 0.616 ± 0.006 | 0.54 ± 0.005 | 0.478 ± 0.005
101.3 kPa, x2 = 0.4973 | 0.722 ± 0.007 | 0.626 ± 0.006 | 0.547 ± 0.005
101.3 kPa, x2 = 0.5972 | 0.861 ± 0.008 | 0.737 ± 0.007 | 0.636 ± 0.006
101.3 kPa, x2 = 0.6979 | 1.06 ± 0.009 | 0.891 ± 0.008 | –
101.3 kPa, x2 = 0.7995 | 1.361 ± 0.012 | 1.121 ± 0.01 | 0.931 ± 0.008
101.3 kPa, x2 = 0.9028 | – | 1.458 ± 0.013 | 1.188 ± 0.011

CCCCCCCC(=O)OCC + CCCCO
viscosity [mPa·s], 100 kPa
Details | x2 = 0.1124 | x2 = 0.2221 | x2 = 0.3 | x2 = 0.4 | x2 = 0.4999 | x2 = 0.5999 | x2 = 0.727 | x2 = 0.8203 | x2 = 0.9108
293.15 K | 1.508 ± 0.047 | 1.507 ± 0.047 | 1.521 ± 0.048 | 1.548 ± 0.048 | 1.587 ± 0.05 | 1.651 ± 0.052 | 1.795 ± 0.056 | 2.014 ± 0.063 | 2.351 ± 0.073
298.15 K | 1.378 ± 0.043 | 1.379 ± 0.043 | 1.378 ± 0.043 | 1.407 ± 0.044 | 1.436 ± 0.045 | 1.488 ± 0.046 | 1.61 ± 0.05 | 1.789 ± 0.056 | 2.071 ± 0.065
303.15 K | 1.264 ± 0.039 | 1.261 ± 0.039 | 1.263 ± 0.039 | 1.295 ± 0.04 | 1.307 ± 0.041 | 1.36 ± 0.042 | 1.468 ± 0.046 | 1.611 ± 0.05 | 1.842 ± 0.058
308.15 K | 1.162 ± 0.036 | 1.161 ± 0.036 | 1.164 ± 0.036 | 1.177 ± 0.037 | 1.193 ± 0.037 | 1.233 ± 0.039 | 1.331 ± 0.042 | 1.458 ± 0.046 | 1.646 ± 0.051
313.15 K | 1.069 ± 0.033 | 1.062 ± 0.033 | 1.06 ± 0.033 | 1.07 ± 0.033 | 1.09 ± 0.034 | 1.122 ± 0.035 | 1.194 ± 0.037 | 1.307 ± 0.041 | 1.467 ± 0.046
318.15 K | 0.999 ± 0.031 | 0.988 ± 0.031 | 0.99 ± 0.031 | 0.993 ± 0.031 | 1.013 ± 0.032 | 1.039 ± 0.032 | 1.106 ± 0.035 | 1.193 ± 0.037 | 1.327 ± 0.041
323.15 K | 0.932 ± 0.029 | 0.927 ± 0.029 | 0.92 ± 0.029 | 0.925 ± 0.029 | 0.94 ± 0.029 | 0.958 ± 0.03 | 1.011 ± 0.032 | 1.091 ± 0.034 | 1.208 ± 0.038

COC(C)=O + CCCCO
298.15 K, 101.33 kPa
Details | viscosity [mPa·s]
x1 = 0.0786 | 1.953 ± 0.064
x1 = 0.144 | 1.566 ± 0.052
x1 = 0.2105 | 1.28 ± 0.043
x1 = 0.2986 | 1.019 ± 0.035
x1 = 0.4151 | 0.791 ± 0.028
x1 = 0.4971 | 0.677 ± 0.024
x1 = 0.5919 | 0.576 ± 0.021
x1 = 0.6406 | 0.534 ± 0.02
x1 = 0.7116 | 0.484 ± 0.018
x1 = 0.7972 | 0.44 ± 0.017
x1 = 0.9034 | 0.402 ± 0.016

COc1ccccc1N + CCCCO
viscosity [mPa·s], 101 kPa
Details | x1 = 0.1085 | x1 = 0.1811 | x1 = 0.2605 | x1 = 0.3474 | x1 = 0.4771 | x1 = 0.5867 | x1 = 0.6665 | x1 = 0.7526 | x1 = 0.8949
303.15 K | 2.547 ± 0.059 | 2.719 ± 0.062 | 2.91 ± 0.067 | 3.123 ± 0.071 | 3.448 ± 0.078 | 3.729 ± 0.084 | 3.943 ± 0.088 | 4.18 ± 0.093 | 4.597 ± 0.1
308.15 K | 2.267 ± 0.053 | 2.431 ± 0.056 | 2.611 ± 0.06 | 2.813 ± 0.064 | 3.12 ± 0.071 | 3.388 ± 0.077 | 3.59 ± 0.081 | 3.815 ± 0.086 | 4.205 ± 0.094
313.15 K | 2.036 ± 0.048 | 2.194 ± 0.051 | 2.365 ± 0.055 | 2.554 ± 0.059 | 2.846 ± 0.065 | 3.103 ± 0.07 | 3.297 ± 0.074 | 3.516 ± 0.079 | 3.895 ± 0.087
318.15 K | 1.83 ± 0.043 | 1.981 ± 0.047 | 2.143 ± 0.05 | 2.322 ± 0.054 | 2.598 ± 0.06 | 2.847 ± 0.065 | 3.036 ± 0.069 | 3.247 ± 0.073 | 3.609 ± 0.081

COc1ccccc1N + CCCCOCCO
303.15 K, 101 kPa
Details | viscosity [mPa·s]
x1 = 0.115 | 3.21 ± 0.058
x1 = 0.2262 | 3.538 ± 0.064
x1 = 0.3338 | 3.847 ± 0.07
x1 = 0.438 | 4.116 ± 0.075
x1 = 0.539 | 4.334 ± 0.079
x1 = 0.6369 | 4.494 ± 0.082
x1 = 0.7318 | 4.629 ± 0.084
x1 = 0.8238 | 4.741 ± 0.086
x1 = 0.9132 | 4.839 ± 0.088

CCC(C)=O + CCCCn1cc[n+](C)c1.F[B-](F)(F)F
298.15 K, 101.33 kPa
Details | viscosity [mPa·s]
x2 = 0.7996 | 42.25 ± 2.9
x2 = 0.8995 | 67.85 ± 6
